ChEMBL document CHEMBL5729376, “SSAO inhibitors and use thereof” (2022)

How the values were obtained:
[1] = target: T1, Amine oxidase [flavin-containing] A (Homo sapiens, UniProt P21397); test: (§1) SSAO Activity Assay: Amine oxidase activity of recombinant hSSAO, hMAO-A, and hMAO-B isoforms are measured using the MAO-Glo assay kit (Promega, V1402). Ten nL test compounds (with DMSO as vehicle, 0.1% v/v for hSSAO, hMAO-A and hMAO-B) were added into assay plates by Echo, and pre-incubated with 5 μL of enzyme for 30 mins at room temperature before the addition of 5 μL of luminogenic substrate. The substrate concentration is 40 μM for human recombinant SSAO, 40 μM for human recombinant MAO-A, and 4 μM for human recombinant MAO-B. The hSSAO and hMAO-A assays were conducted in the MAO-A reaction buffer in the kit, and the MAO-B assay was conducted in the MAO-B reaction buffer. Oxidation of the substrate was conducted for 1 hr, before the addition of detecting reagent according the manufacture's protocol. The IC50 value of the tested compounds was calculated by fitting the dose response curve using a 4-parameter non-linear regression routine.
T1 sequence (P21397 whole entry): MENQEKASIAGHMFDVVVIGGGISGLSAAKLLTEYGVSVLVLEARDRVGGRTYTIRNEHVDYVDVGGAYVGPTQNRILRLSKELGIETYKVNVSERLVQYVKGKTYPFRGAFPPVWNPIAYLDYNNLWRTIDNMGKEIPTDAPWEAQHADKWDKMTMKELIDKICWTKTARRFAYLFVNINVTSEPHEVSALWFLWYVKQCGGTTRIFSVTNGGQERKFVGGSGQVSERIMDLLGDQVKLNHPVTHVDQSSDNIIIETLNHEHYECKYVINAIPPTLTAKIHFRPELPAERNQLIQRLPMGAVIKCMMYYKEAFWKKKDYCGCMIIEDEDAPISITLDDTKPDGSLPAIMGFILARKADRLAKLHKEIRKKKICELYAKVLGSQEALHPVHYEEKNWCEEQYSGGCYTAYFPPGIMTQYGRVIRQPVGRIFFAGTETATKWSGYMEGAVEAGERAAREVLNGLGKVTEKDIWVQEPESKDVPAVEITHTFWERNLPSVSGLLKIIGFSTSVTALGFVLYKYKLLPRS

[2] = target: T2, Amine oxidase [flavin-containing] B (Homo sapiens, UniProt P27338); test: as §1
T2 sequence (P27338 whole entry): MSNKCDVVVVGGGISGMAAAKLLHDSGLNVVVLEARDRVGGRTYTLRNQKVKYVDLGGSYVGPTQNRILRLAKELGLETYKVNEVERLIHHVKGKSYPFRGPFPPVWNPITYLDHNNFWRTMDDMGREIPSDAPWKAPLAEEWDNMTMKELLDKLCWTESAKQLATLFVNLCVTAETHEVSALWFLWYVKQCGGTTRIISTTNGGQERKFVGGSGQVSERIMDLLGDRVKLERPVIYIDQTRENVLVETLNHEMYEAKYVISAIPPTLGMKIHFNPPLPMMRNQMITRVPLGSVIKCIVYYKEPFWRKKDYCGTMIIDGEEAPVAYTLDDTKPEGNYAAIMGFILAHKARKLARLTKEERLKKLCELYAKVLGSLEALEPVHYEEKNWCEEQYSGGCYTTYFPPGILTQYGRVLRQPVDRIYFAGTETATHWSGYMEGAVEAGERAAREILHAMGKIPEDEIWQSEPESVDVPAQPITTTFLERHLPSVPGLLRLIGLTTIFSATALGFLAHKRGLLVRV

IC50 [1] [µM] | IC50 [2] [µM] | Compound
> 30 | > 30 | NC/C(=C\F)COc1ccc(S(=O)(=O)CC23CCC(C(=O)N4CCC(F)(F)CC4)(CC2)CC3)cc1
> 30 | < 10 | COC1(CS(=O)(=O)c2ccc(OC/C(=C/F)CN)cc2)CCOCC1
> 30 | > 30 | CC(C)N(C)C(=O)C(C)(C)CS(=O)(=O)c1ccc(OC/C(=C/F)CN)cc1
> 30 | > 30 | C[C@H](CN1CCCC1=O)CS(=O)(=O)c1ccc(OC/C(=C/F)CN)cc1
< 10 |  | CC(C)(C)C(=O)NC12CCC(CS(=O)(=O)c3ccc(OC/C(=C/F)CN)cc3)(CC1)C2
< 10 | < 10 | NC/C(=C\F)COc1ccc(S(=O)(=O)CC2CCOCC2)c(F)c1
 | < 10 | CC(C)(C)C(=O)N1CCN(CS(=O)(=O)c2ccc(OC/C(=C/F)CN)cc2)C(=O)C1
> 30 | < 10 | NC/C(=C\F)COc1ccc(S(=O)(=O)C[C@@H]2CCCO2)cc1
> 30 |  | NC/C(=C\F)COc1ccc(S(=O)(=O)CC23CCC(C4(O)CC4)(CC2)CC3)cc1
> 30 | < 10 | CC1(C)COC(CS(=O)(=O)c2ccc(OC/C(=C/F)CN)cc2)CO1 (stereo unspecified)
> 30 |  | NC/C(=C\F)COc1ccc(S(=O)(=O)CC23CCC(NC(=O)C4CC4)(CC2)CC3)cc1
10 to 30 | < 10 | NC/C(=C\F)COc1ccc(S(=O)(=O)C[C@H]2CCOC2)cc1
> 30 |  | NC/C(=C\F)COc1ccc(S(=O)(=O)Cc2ccc(C(=O)NC3CCC3)c(C(F)(F)F)c2)cc1
> 30 | > 30 | CC(C)(C)C(=O)N1CCC(CS(=O)(=O)c2ccc(OC/C(=C/F)CN)cc2)CC1
 | < 10 | CC1(CS(=O)(=O)c2ccc(OC/C(=C/F)CN)cc2)CCN(C(=O)C2(C)CC2)CC1
 | < 10 | CC1(C(=O)N2CCN(CS(=O)(=O)c3ccc(OC/C(=C/F)CN)cc3)C(=O)C2)CCC1
10 to 30 | < 10 | CO[C@H]1CC[C@H](CS(=O)(=O)c2ccc(OC/C(=C/F)CN)cc2)CC1
10 to 30 | 10 to 30 | CO[C@H]1CC[C@@H](CS(=O)(=O)c2ccc(OC/C(=C/F)CN)cc2)CC1

IC50 [1] [µM] | IC50 [2] [µM] | Compound
> 30 | > 30 | C[C@@H](CN1CCCCC1=O)CS(=O)(=O)c1ccc(OC/C(=C/F)CN)cc1
10 to 30 | 10 to 30 | NC/C(=C\F)COc1ccc(S(=O)(=O)C[C@H]2CC[C@H](O)CC2)cc1
> 30 | > 30 | C[C@@H](CN1CCOCC1)CS(=O)(=O)c1ccc(OC/C(=C/F)CN)cc1
 | > 30 | CC(C)C(=O)N1CCC(CS(=O)(=O)c2ccc(OC/C(=C/F)CN)cc2)C1 (stereo unspecified)
> 30 | > 30 | CC(C)(CN1CCOCC1)CS(=O)(=O)c1ccc(OC/C(=C/F)CN)cc1
> 30 |  | CC(C)C(=O)N(C)CC(C)(C)CS(=O)(=O)c1ccc(OC/C(=C/F)CN)cc1
> 30 | < 10 | CC(C)n1nc(CS(=O)(=O)c2ccc(OC/C(=C/F)CN)cc2)ccc1=O
 | < 10 | NC/C(=C\F)COc1ccc(S(=O)(=O)CC2CCN(C(=O)C34CC(F)(C3)C4)CC2)cc1
 | < 10 | N#CC1(CS(=O)(=O)c2ccc(OC/C(=C/F)CN)cc2)CCOCC1
> 30 |  | CN(C)C(=O)C12CCC(CS(=O)(=O)c3ccc(OC/C(=C/F)CN)cc3)(CC1)CC2
> 30 |  | NC/C(=C\F)COc1ccc(S(=O)(=O)CC23CCC(O)(CC2)CC3)cc1
> 30 |  | CCN(CC(C)(C)CS(=O)(=O)c1ccc(OC/C(=C/F)CN)cc1)C(=O)C(C)C
> 30 |  | NC/C(=C\F)COc1ccc(S(=O)(=O)CC23CCC(C(=O)NC4CCC4)(CC2)CC3)cc1
 | < 10 | NC/C(=C\F)COc1ccc(S(=O)(=O)CC2CCOCC2)c(Cl)c1
> 30 |  | CC1CCN(C23CCC(CS(=O)(=O)c4ccc(OC/C(=C/F)CN)cc4)(CC2)CC3)C1=O (stereo unspecified)
> 30 |  | COCS(=O)(=O)c1ccc(OC/C(=C/F)CN)cc1
> 30 |  | NC/C(=C\F)COc1ccc(S(=O)(=O)COCC2CCN(C(=O)C3(C(F)(F)F)CC3)CC2)cc1
